Measurements published in paper PMC3777193, “Diaryl- and triaryl-pyrrole derivatives: inhibitors of the MDM2–p53 and MDMX–p53 protein–protein interactions” (Medchemcomm, 2013).
Where two headings read alike, the source gives them in different places.

Key:
[1] = molecular target: MDM2–p53 (Homo sapiens, UniProt Q00987); experiment: MDM2–p53 ELISA protein–protein binding assay
[2] = molecular target: T1, MDMX–p53 (Homo sapiens, UniProt O15151); experiment: MDMX–p53 ELISA binding assay; details: read-out: MDMX IC50
T1 construct: host or cells: in vitro coupled T7 transcription and rabbit reticulocyte lysate translation
T1 sequence (O15151 1-490): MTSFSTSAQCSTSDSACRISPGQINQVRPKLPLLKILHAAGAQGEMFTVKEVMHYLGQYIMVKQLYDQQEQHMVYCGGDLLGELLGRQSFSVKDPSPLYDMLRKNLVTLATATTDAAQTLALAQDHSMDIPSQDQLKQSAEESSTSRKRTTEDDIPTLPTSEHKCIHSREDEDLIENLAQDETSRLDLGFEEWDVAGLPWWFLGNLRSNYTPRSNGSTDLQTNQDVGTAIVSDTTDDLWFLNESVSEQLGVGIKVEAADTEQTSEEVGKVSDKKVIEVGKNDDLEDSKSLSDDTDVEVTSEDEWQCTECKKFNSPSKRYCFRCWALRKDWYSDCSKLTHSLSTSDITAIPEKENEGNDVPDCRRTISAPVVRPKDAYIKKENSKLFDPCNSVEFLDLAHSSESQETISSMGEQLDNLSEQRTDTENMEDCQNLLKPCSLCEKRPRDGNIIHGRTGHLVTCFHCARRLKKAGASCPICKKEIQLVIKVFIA

[3] = system: SJSA-1 cells; assay type: cell-based; details: SJSA-1 (MDM2 amplified, p53wt), 5 μM, 4 h
[4] = system: A2780 cells; assay type: cell-based; details: A2780 (p53wt), 0.1, 0.2 and 5 μM, 4 h
[5] = system: A2780CP70 cells; assay type: cell-based; details: A2780 CP70 (p53 mutant), 0.1, 0.2 and 5 μM, 4 h
[6] = system: SJSA-1; experiment: Growth inhibitory activity, SJSA-1; details: Homo sapiens, SJSA-1, read-out: GI50 SJSA-1
Experimental: (§1) Growth inhibitory activity was determined for selected pyrroles in a panel of cell lines with defined MDM2, MDMX and p53 status (Table 5).

[7] = system: SN40R2; experiment: Growth inhibitory activity, SN40R2; details: read-out: GI50 SN40R2
Experimental: as §1

[8] = system: MRK-NU-1; experiment: Growth inhibitory activity, MRK-NU-1; details: Homo sapiens, MRK-nu-1, read-out: GI50 MRK-NU-1
Experimental: as §1

[9] = system: MDM2; details: read-out: MDM2–p53 IC50; cited from earlier work

Chain of MDM2–p53 (Q00987 whole entry): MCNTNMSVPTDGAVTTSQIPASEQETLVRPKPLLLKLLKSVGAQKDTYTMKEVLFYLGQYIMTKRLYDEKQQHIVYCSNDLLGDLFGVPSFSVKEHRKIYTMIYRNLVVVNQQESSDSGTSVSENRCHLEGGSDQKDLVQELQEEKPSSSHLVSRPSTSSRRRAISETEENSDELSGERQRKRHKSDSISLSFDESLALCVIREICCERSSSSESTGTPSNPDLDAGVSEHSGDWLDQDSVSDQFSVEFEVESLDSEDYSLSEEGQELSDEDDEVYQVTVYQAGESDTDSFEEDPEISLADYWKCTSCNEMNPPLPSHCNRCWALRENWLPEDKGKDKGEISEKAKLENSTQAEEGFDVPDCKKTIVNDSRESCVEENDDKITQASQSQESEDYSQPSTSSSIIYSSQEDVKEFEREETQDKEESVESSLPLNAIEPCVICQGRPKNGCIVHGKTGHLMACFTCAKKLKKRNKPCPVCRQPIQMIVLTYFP

| Compound | IC50 [1] [nM] | fold more potent than the comparable 2,5-dimethyl analogues (4a, 4b) [1] | IC50 ([1]; read-out: MDM2 IC50) [nM] | IC50 [2] [nM] | induction of MDM2, p53, and p21 (Western blot) [3] | induction of MDM2 and p21 (Western blot) [4] | induction of MDM2, p53, and p21 (Western blot) [5] | GI50 [6] [nM] | GI50 [7] [nM] | GI50 [8] [nM] | IC50 [9] [nM] |
| --- | --- | --- | --- | --- | --- | --- | --- | --- | --- | --- | --- |
| O=C1NC(=S)NC(=O)C1=Cc1cc(-c2ccccc2)n(-c2ccc(Cl)cc2)c1-c1ccccc1 [Compound 4c, 5-((1-(4-chlorophenyl)-2,5-diphenyl-1H-pyrrol-3-yl)methylene)-2-thioxodihydropyrimidine-4,6(1H,5H)-dione] | 120 ± 20 | 5–10 fold | 110 ± 30 | 4200 ± 1200 | clearly visible | observed | no induction | 2300 ± 200 | 2800 ± 600 | 2300 ± 300 | – |
| CCOc1cc(C(C)(C)C)ccc1C1=N[C@@](C)(c2ccc(Cl)cc2)[C@@](C)(c2ccc(Cl)cc2)N1C(=O)N1CCN(CCCS(C)(=O)=O)CC1 [RG-7112] | – | – | – | – | – | – | – | – | – | – | 12 |
